The source of these data is ChEMBL document CHEMBL3525940, “The tissue-specific toxicity of methimazole in the mouse olfactory mucosa is partly mediated through target-tissue metabolic activation by CYP2A5” (Drug Metab Dispos, 2011).

Data set [1] in a line: Drug metabolism in Cyp2a5-null B6 mouse olfactory mucosa microsomes assessed as rate of disappearance of compound at 5 uM after 15 mins. It is filed as ADME. To be noted: B6 (C57BL/6), read-out: Drug metabolism.
Data set [2] concerns Mus musculus. In words: Toxicity in wild-type mouse olfactory mucosa assessed as epithelium loss at 50 mg/kg, ip by hematoxylin/eosin staining. Type of data set: organism-based. To be noted: in vivo. On the set-up: dose 50 mg/kg, route intraperitoneal.
Data set [3] deals with Mus musculus. In words: Toxicity in wild-type littermates mouse olfactory mucosa assessed as epithelium loss measured as intact olfactory epithelium at 50 mg/kg, ip by hematoxylin/eosin staining. Type of data set: organism-based. Set-up: dose 50 mg/kg, route intraperitoneal. To be noted: in vivo.
The test system of data set [4] is Mus musculus. As to the kind of experiment: Toxicity in wild-type B6 mouse olfactory mucosa assessed as epithelium loss measured as intact olfactory epithelium at 50 mg/kg, ip by hematoxylin/eosin staining. Type of data set: organism-based. On the set-up: dose 50 mg/kg, route intraperitoneal. The conditions noted are these: in vivo.
Data set [5] deals with Mus musculus. In words: Toxicity in wild-type mouse olfactory mucosa assessed as abnormal nasal cavity and epithelium at 50 mg/kg, ip by hematoxylin/eosin staining. The conditions noted are these: in vivo. It is filed as organism-based. On the set-up: dose 50 mg/kg, route intraperitoneal.
Data set [6] concerns Mus musculus. In words: Toxicity in wild-type mouse olfactory mucosa assessed as detached epithelium from basement membrane, fractured and disorganized at 50 mg/kg, ip by hematoxylin/eosin staining. Type of data set: organism-based. To be noted: in vivo. On the set-up: dose 50 mg/kg, route intraperitoneal.
For data set [7], the system named is Mus musculus. In words: Toxicity in Cyp2a5-null B6 mouse olfactory mucosa assessed as abnormal nasal cavity and epithelium at 50 mg/kg, ip by hematoxylin/eosin staining. It is filed as organism-based. Set-up: dose 50 mg/kg, route intraperitoneal. The conditions noted are these: in vivo.
Data set [8] relates to Mus musculus. As to the kind of experiment: Toxicity in wild-type B6 mouse olfactory mucosa assessed as depletion of nonprotein sulfhydryl at 50 mg/kg, ip at 2 hrs relative to vehicle treated control. It is filed as organism-based. The conditions noted are these: in vivo. Set-up: dose 50 mg/kg, route intraperitoneal.
Data set [9] has as its system Mus musculus. As to the kind of experiment: Toxicity in Cyp2a5-null B6 mouse olfactory mucosa assessed as attached epithelium from basement membrane at 50 mg/kg, ip by hematoxylin/eosin staining. Type of data set: organism-based. On the set-up: dose 50 mg/kg, route intraperitoneal. The conditions noted are these: in vivo.
Data set [10] relates to Mus musculus. In words: Toxicity in Cyp2a5-null B6 mouse olfactory mucosa assessed as depletion of nonprotein sulfhydryl at 50 mg/kg, ip at 2 hrs relative to vehicle treated control. To be noted: in vivo. It is filed as organism-based. Set-up: dose 50 mg/kg, route intraperitoneal.
Data set [11] concerns Mus musculus. As to the kind of experiment: Toxicity in Cyp2a5-null B6 mouse olfactory mucosa assessed as epithelium loss measured as intact olfactory epithelium at 50 mg/kg, ip by hematoxylin/eosin staining. Type of data set: organism-based. The conditions noted are these: in vivo. Set-up: dose 50 mg/kg, route intraperitoneal.
The nature of data set [12]: Drug metabolism in wild-type mouse olfactory mucosa microsomes assessed as rate of disappearance of compound at 5 uM after 15 mins. To be noted: read-out: Drug metabolism. It is filed as ADME.

With `Cn1cc[nH]c1=S` [METHIMAZOLE], the metabolised at 0.25 h, 5 µM in [1] came to 28.7%; in data set [12] it was 58.7%. For the same molecule, the Activity result is “Toxic” with Mus musculus [2]; 39.8% with Mus musculus [3]; 14.6% with Mus musculus [4]; “Toxic” in the data set on Mus musculus [5]; “Toxic” with Mus musculus [6]; “Non-toxic” in the data set with Mus musculus [7]. Moreover, the Activity with Mus musculus [8] was 51.8%; in the data set on Mus musculus [9] it was “Non-toxic”; with Mus musculus [10] it was 41.5%; with Mus musculus [11] it was 60.9%.
